Reference: US20230310531A1, “TRIPTERYGIUM WILFORDII COMPOSITION FOR INHIBITING DRUG-RESISTANT CANCER, AND PREPARATION METHOD AND USE THEREOF” (HUAQIAO UNIVERSITY, priority 2022, published 2023)
Where two headings read alike, the source gives them in different places.

Assays:
Type in all cases: cell-based, human
A549/DDP cells = assay: MTT cell proliferation inhibition, A549/DDP cells; conditions: for cell inhibition rate increased, two drugs combined compared with the single drug group: TP 4 μg/ml plus compound (E 1, H 11, I 0.9, J 2, P 20 μg/ml), equal volume ratio; for IC50: compound alone
Protocol: (§1) The cisplatin-resistant cells of non-small cells, lung cancer cells A549 and H1299 and human large cells, lung cancer cells H460 (that is, A549/DDP, H1299/DDP, and H460/DDP), as well as normal human lung bronchial epithelial cells 16HBE were used as cultured cells. All the cells were cultured with a PRMI-1640 complete medium at 37° C. with a CO2 concentration of 5%. Three kinds of cell models were established by culturing the above cells to a certain amount.
(§2) The three kinds of cells in a logarithmic growth phase obtained in step 1 were separately inoculated in a 96-well plate at a density of 5×10^4 cells/mL. 90 μL of the cells were added to each well, and a complete medium as a blank control group, a DMSO negative control, a TP positive control, and experimental groups with different concentrations of compounds were set up. Three replicate wells were set up in each group, and the cells were cultured in a carbon dioxide incubator for 24 h. Drugs were added in a volume of 10 μl to each well, such that final concentrations were 10 μg/ml, 20 μg/ml, 30 μg/ml, 40 μg/ml, and 50 μg/ml. After culturing for 24 h, 48 h, and 72 h, 10 μl of an MTT solution was added to each well. After incubation for 4 h, the medium in each well was aspirated, and 100 μl of DMSO was added. The culture plate was placed in a microplate reader and shaken for 5 min to dissolve crystals. The cells were put into a microplate reader for detection, and a detection wavelength was set to OD=490 nm and a reference wavelength OD=630 nm to measure an absorbance of each well.
(§3) Relative cell viability (%)=((OD value of drug experimental group−OD value of blank control group)/(OD value of negative control group−OD value of blank control group))×100%.
(§4) Relative cell inhibition rate (%)=(1−relative cell viability)×100%.
(§5) The formula for calculating a combination index (CI) was as follows: […]
(§6) In the formula, (Dx)1, (Dx)2, and (Dx)3 represented the drug doses used alone, while (D)1, (D)2, and (D)3 represented the […] contributed by the respective drugs in the combination. […] When CI<1, there was a synergistic effect; when CI>1, there was an antagonistic effect; and when CI=1, there was […].
(§7) A calculation method of IC50 was as follows: SPSS software was used for calculation: after entering the SPSS data editor, the (Variable View) was activated to define variables, and under the variable name (Name), informations were input as follows: “dose/concentration”, “inhibition rate”, “total value”. A parameter Analysis Regression Probit was selected, the “Probit Analysis” dialog box was brought up, the “Dose/Concentration” was selected into the “Covariates” column, the “Inhibition Rate” was selected into the “Response Frequency” column, and the “Total Value” was selected into the “Total Observed” column. In the “Transform” column, “Log base 10” was selected; in the “Mode 1” column, the “Probit” probability unit model was selected; and in the “Options” column, “Calculate from Data” was selected.
When drugs were used in combination, the TP was compatible with any one or any two of the compounds E, H, I, J, and P separately in an equal volume ratio.

H460/DDP cells = assay: MTT cell proliferation inhibition, H460/DDP cells; conditions: for IC50: H460/DDP cells; for Combination index (CI): H460/DDP
Protocol: as §1, §2, §3, §4, §5, §6, §7
The experimental design, the five compounds, and a method for determining the inhibitory effect on cisplatin-resistant cells H460/DDP were the same as those in Example 1.

H1299/DDP cells = assay: MTT cell proliferation inhibition, H1299/DDP cells; conditions: for Combination index (CI) / drug effect increased compared with TP alone: H1299/DDP; for drug effect increased compared with TP alone: used in combination with the TP
Protocol: as §1, §2, §3, §4, §5, §6, §7
The experimental design, the five compounds, and a method for determining the inhibitory effect on cisplatin-resistant cells H1229/DDP were the same as those in Example 1.

[1] = A549/DDP, TP 2.5 μg/ml, compound at higher dose (E 2, H 22, I 1.8, J 4, P 40 μg/ml)
[2] = A549/DDP, TP 2.5 μg/ml, compound at lower dose (E 1, H 11, I 0.9, J 2, P 20 μg/ml)
[3] = A549/DDP, TP 5 μg/ml, compound at higher dose (E 2, H 22, I 1.8, J 4, P 40 μg/ml)
[4] = A549/DDP, TP 5 μg/ml, compound at lower dose (E 1, H 11, I 0.9, J 2, P 20 μg/ml)
[5] = 48 h, compound alone (FIGS. 1A-R)
[6] = 48 h, TP 2.5 μg/ml, compound at higher dose (E 2, H 22, I 1.8, J 4, P 40 μg/ml)
[7] = 48 h, TP 2.5 μg/ml, compound at lower dose (E 1, H 11, I 0.9, J 2, P 20 μg/ml)
[8] = 48 h, TP 5 μg/ml, compound at higher dose (E 2, H 22, I 1.8, J 4, P 40 μg/ml)
[9] = 48 h, TP 5 μg/ml, compound at lower dose (E 1, H 11, I 0.9, J 2, P 20 μg/ml)
[10] = Homo sapiens, A549 cells (A549/DDP per FIG. 2 legend), 48 h, read-out: IC50
[11] = Homo sapiens, NCI-H460, 48 h, compound alone (FIGS. 1A-R), read-out: IC50
[12] = Homo sapiens, NCI-H1299, H1299/DDP, in combination with TP 2.5 μg/ml, read-out: IC50 concentrations doses
[13] = Homo sapiens, NCI-H1299, H1299/DDP, in combination with TP 5 μg/ml, read-out: IC50 concentrations doses

Row | Compound | cell inhibition rate increased, two drugs combined compared with the single drug group (A549/DDP cells; A549/DDP, 48 h) [times] | Combination index (CI) (A549/DDP cells; [1]) | Combination index (CI) (A549/DDP cells; [2]) | Combination index (CI) (A549/DDP cells; [3]) | Combination index (CI) (A549/DDP cells; [4]) | IC50 (H460/DDP cells; [5]) [µg/mL] | Combination index (CI) (H460/DDP cells; [6]) | Combination index (CI) (H460/DDP cells; [7]) | Combination index (CI) (H460/DDP cells; [8]) | Combination index (CI) (H460/DDP cells; [9]) | Combination index (CI) (H1299/DDP cells; [6]) | Combination index (CI) (H1299/DDP cells; [7]) | Combination index (CI) (H1299/DDP cells; [8]) | drug effect increased compared with TP alone (H1299/DDP cells) [times] | Combination index (CI) (H1299/DDP cells; [9]) | IC50 (A549/DDP cells; [10]) [µg/mL] | IC50 (H460/DDP cells; [11]) [µg/mL] | IC50 (H1299/DDP cells; [12]) [µg/mL] | IC50 (H1299/DDP cells; [13]) [µg/mL] | also measured
1 | CC(=O)OCC12C(OC(=O)C=Cc3ccccc3)CCC(C)(O)C13OC(C)(C)C(C(OC(C)=O)C2OC(=O)c1cccnc1)C3OC(C)=O (stereo not drawn) [Compound E, 1β-(E-cinnamoyloxy)-4a-hydroxy-5a,7β,11-triacetoxy-8β-nicotinoyloxy-dihydroagarofuran] | 2.01 | 1.1269 | 0.8986 | 1.1213 | 0.8688 | 1.98 | 0.6604 | 1.4669 | 0.5008 | 1.1134 | 1.1646 | 0.7473 | 0.8025 | 2.15 |  |  |  |  |  | IC50 (A549/DDP cells; A549 cells (A549/DDP per FIG. 2 legend), 48 h): 5.03 µg/mL; IC50 (H460/DDP cells; 48 h, compound alone (FIGS. 7A-E)): 0.58 µg/mL
2 | C[C@@]1(C(=O)O)CC[C@]2(C)CC[C@]3(C)C4=CC(=O)c5c(cc(O)c(O)c5C=O)[C@]4(C)CC[C@@]3(C)[C@@H]2C1 [Compound H, Demethylzeylasteral] | 1.54 | 0.7225 | 0.8749 | 0.7206 | 1.1462 | 22.31 | 0.5569 | 0.7051 | 0.4270 | 0.6318 | 0.9651 | 0.8151 | 0.8689 | 2.12 |  |  |  |  |  | 
3 | CC(C)c1ccc2c(c1)CCC1C(C)(CO)C(=O)CCC21C (stereo not shown) [Compound I, Triptobenzene R] | 1.81 | 0.8583 | 1.3864 | 0.8288 | 0.8316 | 1.893 | 1.2499 | 1.1241 | 0.7619 | 0.9327 | 1.1259 | 0.7373 | 1.1503 |  | 0.8353 |  |  |  |  | inhibitory effect compared with TP (A549/DDP cells; A549/DDP, 48 h, compound alone (FIGS. 3A-E)): better inhibitory effect on cells than that of the TP; IC50 (H1299/DDP cells; H1299 cells (H1299/DDP per FIG. 2 legend), 48 h, compound alone): 8.61 µg/mL
4 | CC(C)c1ccc2c(c1)C(=O)C[C@H]1[C@@](C)(CO)[C@@H](O)CC[C@]21C [Compound J, (3S,4S,5R,10S)-3,19-dihydroxy-7-ox-oabieta-8,11,13-triene] | 1.58 | 0.9025 | 0.9333 | 0.9982 | 0.6952 |  | 0.3260 | 0.5384 | 0.3064 | 0.6519 | 0.9855 | 0.6741 | 0.5884 |  | 0.6735 | 6.92 | 4.32 | 1.84 | 0.9 | inhibition rate of combination with TP, times higher than TP alone (A549/DDP cells; A549/DDP, combination with TP): 1.32 times; IC50 (H460/DDP cells; Homo sapiens, NCI-H460, 48 h, compound alone (FIGS. 7A-E), read-out: IC50): 0.61 µg/mL
5 | CC(C)c1ccc2c(c1O)CC[C@H]1C(C)(C)[C@@H](O)CC[C@]21C [Compound P, Triptobenzene B] | 1.34 | 1.2660 | 1.0764 | 1.4985 | 1.1918 |  | 0.1961 | 0.2435 | 0.2976 | 0.3777 | 1.1079 | 1.7041 | 0.9326 |  | 0.6521 | 6.72 | 39.2 | 12 | 11 | IC50 (H1299/DDP cells; Homo sapiens, NCI-H1299, 48 h, H1299/DDP cells, 48 h, compound alone (FIGS. 5A-E), read-out: IC50): 12.8 µg/mL
6 | CC(C)[C@]12O[C@H]1[C@@H]1O[C@]13[C@]1(O[C@H]1C[C@H]1C4=C(CC[C@@]13C)C(=O)OC4)[C@@H]2O [TP, triptolide, reference compound] |  |  |  |  |  |  |  |  |  |  |  |  |  |  |  |  | 1.97 |  |  | IC50 (A549/DDP cells; Homo sapiens, A549/DDP, A549DDP cells, read-out: IC50 value of A549DDP cells used as a synergistic dose): 7.83 µg/mL
